Test results from patent US8455475B2 (Gruenenthal GmbH, priority 2009, dated 2013).

Tests used:
[1] = molecular target: T1, human B1R (bradykinin receptor 1) (Homo sapiens, UniProt P46663); assay: FLIPR Ca2+ assay (Fluo-4) on CHO K1 cells stably transfected with the human B1R gene (hB1R cells): % inhibition at 10 μM / IC50, agonist Lys-Des-Arg9-bradykinin; format: cell-based; settings: for inhibition at 10 µM: CHO-K1, human B1R
T1 construct: expressed in transfected cells; host or cells: CHO K1 cells
T1 sequence (P46663 1-353): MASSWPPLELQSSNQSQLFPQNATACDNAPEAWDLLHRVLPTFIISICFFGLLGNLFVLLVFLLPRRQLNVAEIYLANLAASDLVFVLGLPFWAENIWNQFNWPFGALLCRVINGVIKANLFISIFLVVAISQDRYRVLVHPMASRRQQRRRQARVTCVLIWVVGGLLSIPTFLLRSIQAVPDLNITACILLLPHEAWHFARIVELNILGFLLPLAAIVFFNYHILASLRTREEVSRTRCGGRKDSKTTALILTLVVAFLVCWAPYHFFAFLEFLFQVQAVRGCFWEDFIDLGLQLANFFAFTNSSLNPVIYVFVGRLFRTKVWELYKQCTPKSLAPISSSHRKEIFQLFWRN
Outline: (§1)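 Peak fluorescence counts read on FLIPR (λex 488, λem 540 nm) after two additions: compound first, then agonist at EC80 after 10–20 min. Human line challenged with Lys-Des-Arg9-bradykinin, rat line with Des-Arg9-bradykinin. Suppression of Ca2+ inflow expressed as % of maximum inhibition.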

[2] = molecular target: T2, rat B1R (bradykinin receptor 1) (Rattus norvegicus, UniProt P97583); assay: FLIPR Ca2+ assay (Fluo-4) on CHO K1 cells stably transfected with the B1R gene of the rat (rB1R cells): % inhibition at 10 μM / IC50, agonist Des-Arg9-bradykinin; format: cell-based; settings: for inhibition at 10 µM: CHO-K1, rat B1R
T2 construct: expressed in transfected cells; host or cells: CHO K1 cells
T2 sequence (P97583 1-337): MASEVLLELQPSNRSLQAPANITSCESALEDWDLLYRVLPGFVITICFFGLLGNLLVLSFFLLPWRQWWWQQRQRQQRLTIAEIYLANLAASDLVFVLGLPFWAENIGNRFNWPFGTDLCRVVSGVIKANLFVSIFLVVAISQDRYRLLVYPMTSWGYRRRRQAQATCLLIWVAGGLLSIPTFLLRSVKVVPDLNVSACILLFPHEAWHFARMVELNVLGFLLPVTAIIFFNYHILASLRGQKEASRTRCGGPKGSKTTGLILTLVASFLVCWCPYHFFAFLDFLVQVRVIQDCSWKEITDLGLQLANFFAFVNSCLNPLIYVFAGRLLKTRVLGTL
Outline: as §1

Row | inhibition at 10 µM [1] [%] | inhibition at 10 µM [2] [%] | % Inhibition (human B1R) at 10 μM ([1]; human B1R) [%] | % Inhibition (rat B1R) at 10 μM ([2]; rat B1R) [%] | SMILES
1 | 82 | 98 |  |  | CC1(C)Cc2ccc(C(=O)N3CCC4(CC3)CCN(c3ccncc3)CC4)cc2C1NC(=O)c1ccc(Cl)s1 (stereo not shown) [Ind_CC-066, 5-chloro-N-[2,2-dimethyl-6-(9-pyridin-4-yl-3,9-diazaspiro[5.5]undecane-3-carbonyl)-1,3-dihydro-inden-1-yl]-thiophene-2-carboxylic acid amide]
2 | 94 | 101 |  |  | CC1(C)Cc2ccc(C(=O)N3CCC4(CC3)CCN(c3ccncc3)CC4)cc2C1NC(=O)c1ccc(Cl)cc1Cl (stereo not shown) [Ind_CC-067, 2,4-dichloro-N-[2,2-dimethyl-6-(9-pyridin-4-yl-3,9-diazaspiro[5.5]undecane-3-carbonyl)-1,3-dihydro-inden-1-yl]-benzamide]
3 | 99 | 101 |  |  | O=C(NC1CCc2ccc(C(=O)N3CCC4(CCN(c5ccncc5)CC4)C3)cc21)c1ccccc1C(F)(F)F (stereo not shown) [Ind_CC-081, N-[6-(8-pyridin-4-yl-3,8-diazaspiro[4.5]decane-3-carbonyl)-2,3-dihydro-1H-inden-1-yl]-2-(trifluoromethyl)-benzamide]
4 | 100 | 101 |  |  | O=C(NC1CCc2ccc(C(=O)N3CCC4(CCN(c5ccncc5)CC4)C3)cc21)C(c1ccccc1)c1ccccc1Cl (stereo not shown) [Ind_CC-082, 2-(2-chlorophenyl)-2-phenyl-N-[6-(8-pyridin-4-yl-3,8-diazaspiro[4.5]decane-3-carbonyl)-2,3-dihydro-1H-inden-1-yl]-acetamide]
5 | 90 | 85 |  |  | O=C(/C=C/c1ccccc1Cl)NC1CCc2ccc(C(=O)N3CCC4(CCN(c5ccncc5)CC4)C3)cc21 (stereo not shown) [Ind_CC-083, (E)-3-(2-chlorophenyl)-N-[6-(8-pyridin-4-yl-2,8-diazaspiro[4.5]decane-2-carbonyl)-2,3-dihydro-1H-inden-1-yl]-acrylamide]
6 | 99 | 100 |  |  | O=C(NC1CCc2ccc(C(=O)N3CCC4(CCN(c5ccncc5)CC4)C3)cc21)c1ccccn1 (stereo not shown) [Ind_CC-084, N-[6-(8-pyridin-4-yl-3,8-diazaspiro[4.5]decane-3-carbonyl)-2,3-dihydro-1H-inden-1-yl]-pyridine-2-carboxylic acid amide]
7 |  |  | 91 | 77 | O=C(Nc1ccc(Cl)c(Cl)c1)NC1CCc2ccc(C(=O)N3CCC4(CCN(c5ccncc5)CC4)C3)cc21 (stereo not shown) [Ind_CC-085]
8 | 100 | 99 |  |  | O=C(NCc1ccccc1Cl)NC1CCc2ccc(C(=O)N3CCC4(CCN(c5ccncc5)CC4)C3)cc21 (stereo not shown) [Ind_CC-086, 1-[(2-chlorophenyl)-methyl]-3-[6-(8-pyridin-4-yl-2,8-diazaspiro[4.5]decane-2-carbonyl)-2,3-dihydro-1H-inden-1-yl]-urea]
9 | 42 | 100 |  |  | COc1cc(C)c(C(=O)NC2CCc3ccc(C(=O)N4CCC5(CC4)CCN(c4cccnc4)CC5)cc32)c(C)c1 (stereo not shown) [Ind_CC-090, 4-methoxy-2,6-dimethyl-N-[6-(9-pyridin-3-yl-3,9-diazaspiro[5.5]undecane-3-carbonyl)-2,3-dihydro-1H-inden-1-yl]-benzamide]
10 | 24 | 50 |  |  | COc1cc(C)c(C(=O)NC2CCc3ccc(C(=O)N4CCC5(CC4)CCN(c4ccc(F)cc4)CC5)cc32)c(C)c1 (stereo not shown) [Ind_CC-091, N-[6-[9-(4-fluorophenyl)-3,9-diazaspiro[5.5]undecane-3-carbonyl]-2,3-dihydro-1H-inden-1-yl]-4-methoxy-2,6-dimethyl-benzamide]
11 | 78 | 101 |  |  | COc1cc(C)c(C(=O)NC2CCc3ccc(C(=O)N4CCC5(CCN(Cc6ccncc6)CC5)CC4)cc32)c(C)c1 (stereo not shown) [Ind_CC-092, 4-methoxy-2,6-dimethyl-N-[6-[9-(pyridin-4-yl-methyl)-3,9-diazaspiro[5.5]undecane-3-carbonyl]-2,3-dihydro-1H-inden-1-yl]-benzamide]
